Data reported in US7378232B2 (priority 2002, dated 2008).
Where two headings read alike, the source gives them in different places.

What was measured:
Type in all cases: cell-based
[1] = tested on: wild-type melan-a melanocytes (A) and P-null melanocytes (P)
[2] = tested on: yeast cells expressing / not expressing the P protein (strain SH3866)
[3] = tested on: yeast cells expressing the P protein; assay: Nigericin effect on yeast cell viability, P protein-expressing cells; details: Saccharomyces cerevisiae, data not shown
[4] = tested on: yeast cells not expressing the P protein; assay: Nigericin effect on yeast cell viability, cells without P protein; details: Saccharomyces cerevisiae, data not shown
[5] = tested on: P protein-expressing yeast cells and control yeast cells; assay: Selenite exposure of yeast: colony size and red precipitate formation; details: 10-50 mM selenite in agar, 30° C. for 3 days, FIG. 3B
Procedure: In another experiment, P protein-expressing yeast cells and control yeast cells were exposed to various concentrations of selenite. The toxic affect of selenite in yeast is believed to be due to DNA damage. The major mode of selenite detoxification appears to be its reduction by glutathione to elementary selenium that accumulates as a red precipitate in the cell vacuole (Pinson et al. Molecular Microbiology 36:679-687(2000)).
10 mM, 20 mM, 30 mM, 40 mM, and 50 mM selenite solutions were prepared in 55° C. selective medium-agar and plated in duplicate into 24-well plates. Actively growing yeast cultures were diluted to A600 values of 0.001, and then 10 μl aliquots were spotted in duplicate onto the selenite-containing agar medium. Plates were incubated at 30° C. for 3 days. […]

[6] = 24-well selective medium-agar, 30° C. for 3 days, FIG. 3A

Row | Compound | TOXIN S[…] (as a function of P protein expression) [1] | also measured
1 | arsenic trioxide | ✓ | yeast colony size, P protein-expressing vs non-expressing colonies exposed to the compound [2, 6]: do not reach the same size
2 | C[C@@H]1[C@H](O)[C@@H](C)/C=C/C=C/C=C/C=C/C=C/C=C/C=C/[C@H](O[C@@H]2O[C@H](C)[C@@H](O)[C@H](N)[C@@H]2O)C[C@@H]2O[C@](O)(C[C@@H](O)C[C@@H](O)[C@H](O)CC[C@@H](O)C[C@@H](O)CC(=O)O[C@H]1C)C[C@H](O)[C@H]2C(=O)O [AMPHOTERICIN, amphotericin] | – | TOXIN S[…] CHANGE (as a function of P protein expression) [1]: ✓
3 | [Cd] [CADMIUM, cadmium] | ✓ | –
4 | arsenite | ✓ | –
5 | CCCCS(=N)(=O)CCC(N)C(=O)O (stereo not shown) [BUTHIONINE SULFOXIMINE (BSO), buthionine sulfoximine] | ✓ | –
6 | N.N.[Cl][Pt][Cl] [CISPLATIN, cisplatin] | ✓ | –
7 | C=CCC(N)C(=O)O (stereo not shown) [ALLYLGLYCINE, allylglycine] | – | TOXIN S[…] CHANGE (as a function of P protein expression) [1]: ✓
8 | C=C(CC)C(=O)c1ccc(OCC(=O)O)c(Cl)c1Cl [ETHACRYNIC ACID, ethacrynic acid] | ✓ | –
9 | CC(C)[C@@H]1NC(=O)[C@H](C)OC(=O)[C@@H](C(C)C)NC(=O)[C@@H](C(C)C)OC(=O)[C@H](C(C)C)NC(=O)[C@H](C)OC(=O)[C@@H](C(C)C)NC(=O)[C@@H](C(C)C)OC(=O)[C@H](C(C)C)NC(=O)[C@H](C)OC(=O)[C@@H](C(C)C)NC(=O)[C@@H](C(C)C)OC1=O [VALINOMYCIN, valinomycin] | ✓ | –
10 | CC[C@H]1/C=C/C=C/C[C@@H](C)[C@H](O)[C@@](C)(O)C(=O)[C@@H](C)[C@H](O)[C@@H](C)C(=O)[C@@H](C)[C@H](O)[C@@H](C)/C=C/C(=O)O[C@@H]2[C@H](C)[C@H](CC1)O[C@]1(CC[C@H](C)[C@H](C[C@@H](C)O)O1)[C@H]2C [OLIGOMYCIN, oligomycin] | ✓ | –
11 | CO[C@@H]1C[C@@H](C[C@H]2CC[C@H](C)[C@H]([C@@H](C)C(=O)O)O2)O[C@]2(O[C@](C)([C@H]3CC[C@@](C)([C@@H]4O[C@@H]([C@H]5O[C@@](O)(CO)[C@H](C)C[C@@H]5C)C[C@@H]4C)O3)C[C@H]2C)[C@@H]1C [nigericin] | – | IC50 [3]: 3 µM; IC50 [4]: 25 µM
12 | COc1cc(NC(C)CCCN)c2ncccc2c1 (stereo not shown) [PRIMAQUINE, primaquine] | – | TOXIN S[…] CHANGE (as a function of P protein expression) [1]: ✓
13 | arsenate | ✓ | yeast colony size, P protein-expressing vs non-expressing colonies exposed to the compound [2, 6]: do not reach the same size
14 | O=[Se](=O)(O)O [SELENATE, selenate] | ✓ | –
15 | COc1cccc2c1C(=O)c1c(O)c3c(c(O)c1C2=O)C[C@@](O)(C(=O)CO)C[C@@H]3O[C@H]1C[C@H](N)[C@H](O)[C@H](C)O1 [DOXORUBICIN, doxorubicin] | ✓ | –
16 | N#CC(C#N)=NNc1ccc(OC(F)(F)F)cc1 [FCCP, carbonyl cyanide p-trifluoromethoxyphenylhydrazone] | ✓ | –
17 | CC[C@]1(O)C[C@@H]2CN(CCc3c([nH]c4ccccc34)[C@@](C(=O)OC)(c3cc4c(cc3OC)N(C)[C@H]3[C@@](O)(C(=O)OC)[C@H](OC(C)=O)[C@]5(CC)C=CCN6CC[C@]43[C@@H]65)C2)C1 [VINBLASTINE, vinblastine] | ✓ | –
18 | O=[Se](O)O [selenite] | – | red precipitate accumulation in P-expressing cells vs control cells [5]: accumulate more red precipitate; selenite sensitivity, cells expressing a P protein versus control cells [5]: no difference
19 | CCN(CC)CCCC(C)Nc1ccnc2cc(Cl)ccc12 (stereo not shown) [CHLOROQUINE, chloroquine] | ✓ | –
20 | O=S(=O)([O-])[O-].[Fe+2] [IRON SULFATE (FESO4), iron sulfate (FeSO4)] | ✓ | –
21 | [Sb] [ANTIMONY, antimony] | ✓ | yeast colony size, P protein-expressing vs non-expressing colonies exposed to the compound [2]: do not reach the same size
22 | CO/C1=C\C(C)=C\[C@@H](C)[C@@H](O)[C@@H](C)C/C(C)=C/C=C/[C@H](OC)[C@@H]([C@@H](C)[C@@H](O)[C@H](C)[C@@]2(O)C[C@@H](O)[C@H](C)[C@@H](C(C)C)O2)OC1=O [BAFILOMYCIN Al, bafilomycin A1] | ✓ | –
23 | C[C@@H]1C[C@@H]([C@H](O)CC2CC(=O)NC(=O)C2)C(=O)[C@@H](C)C1 [CYCLOHEXIMIDE, cycloheximide] | ✓ | –
